Results on five compounds are retold here after patent US20220089636A1, “TETRAZOLONE SUBSTITUTED STEROIDS AND USE THEREOF” (Beijing Xuanyi PharmaSciences Co., Ltd., priority 2019, published 2022).

The nature of series [1]: Mouse PK study (i.v. and p.o.). The series is classed as in vivo. Conditions: plasma, male CD1 mice; for half-life: read-out: T1/2 (hr) i.v. (converted); for Vd: read-out: Vss; for bioavailability: 5 mg/kg p.o. vs 1 mg/kg i.v. Here is the method:
Test compounds were dosed to male CD1 mice at 5 mg/kg by oral gavage (p.o.) or 1 mg/kg by intravenous injection (i.v.). Blood samples were taken at 0.083, 0.25, 0.5, 1.0, 3.0, 6.0 and 24 hours post i.v. dosing and at 0.25, 0.5, 1.0, 3.0, 6.0 and 24 hours post p.o. dosing. The plasma concentration of compounds were determined by HPLC.

A further series concerns the target T1, α1β2γ2 GABAA receptor (Homo sapiens, UniProt P14867+P47870).
T1 construct: expressed in transfected cells
As to the kind of experiment: Patch clamp electrophysiology assay of recombinant α1β2γ2 GABAA receptors (potentiation of 2 μM GABA-evoked Cl- current). Conditions: HEK293T cells stably transfected with α1β2γ2 GABAA; for EC50: whole cell, 2 μM GABA, -80 mV. Type of series: cell-based. The procedure:
Cellular electrophysiology is used to measure the pharmacological properties of GABAA receptor modulators in heterologous cell systems. Each compound is tested for its ability to affect GABA mediated currents at a submaximal agonist dose (GABA EC20=2 μM). HEK293T cells are stably transfected with the α1β2γ2 subunits of the GABAA receptor. Flasks or dishes of HEK293 GABAA cells were maintained in the medium (DMEM, 11% (v/v) heat inactivated FBS, 100 or 200 μg/ml G418, 40 μg/ml Hygromycin B, 80 μg/ml Zeocin) and incubated at 37° C. in a humidified incubator with 5% CO2. 12 to 24 hours prior to electrophysiological recordings, the cells were plated on glass cover slips placed in culture dishes and maintained under the same incubation and media conditions. The number of cells being plated on the cover slip should reach a confluence rate at which majority of the cells are single.
For the electrophysiological recordings in the study the following external and internal solutions were used (Table 1):
HEKA EPC 10 USB patch clamp amplifier (from HEKA Elektronik, Germany) was used in the whole cell recording. A cover slip with plenty of single HEK293T-GABAA cells on the surface was removed and placed into a continuously perfused (approximately 1-2 ml/minute) recording chamber mounted on an inverted microscope. GABAA Cl^− current was recorded from single cell using standard whole cell recording techniques. 2 μM GABA was used to evoke GABAA Cl^− current (2 μM of GABA was the EC10-EC20 value of agonist GABA obtained internally on the stable GABAA cells used in this study). After achieving break-in (whole-cell) configuration, the cell was voltage clamped at a holding potential of −80 mV. Only stable cells meeting the recording parameters (membrane resistance Rm>500 MΩ, access resistance (Ra)<15 MΩ, leak current<100 pA in 90% of the recording time) were used. 2 μM GABA was applied to the cell to induce stable Cl^− current first as control for about 2 seconds, test compounds (i.e., compounds of formula (AI), (I), (AII), and (II), or any subgenera thereof) were followed to be applied to the cells for 3 min, then 2 μM GABA was applied to observe the potentiation effect on the GABAA Cl^− current. Different doses of test compound from low to high were applied to the same cell when the cell was stable. A cell was considered stable when current size evoked by 2 μM GABA applied to the cell from time to time was similar. To minimize the possible desensitation of GABAA Cl^− current, duration between applications of test articles was set to 180 seconds.
Test compounds were dissolved in DMSO to form stock solutions (10 mM). Test compounds were diluted to 0.003, 0.01, 0.03, 0.1, 0.3, 1, 3 and 10 μM in bath solution. AU concentrations of test articles were tested on each cell. Data were analyzed using software provided by HEKA, Microsoft Excel and Graphpad Prism (Table 2).
For orientation: In patch-clamp work, channel activity is measured electrically.

The test system of another series is PTZ-treated mice. As to the kind of experiment: Acute PTZ (pentylenetetrazol-induced seizure) assay. Conditions: 3 mg/kg oral gavage 60 min prior to PTZ 120 mg/kg s.c.; observed 30 min. Type of series: in vivo, Male CD-1 mice. The procedure: The anticonvulsant effect of test compounds were assessed in the pentylenetetazol-induced seizure assay in mice similar to methods described in Giardina & Gasior (2009) Curr Protoc Pharmacol., Chapter 5. Male CD-1 mice were housed in groups of five under controlled conditions (temperature of 22±2° C. and 12:12 light-dark cycle, lights on at 8:00 am) and water and food were available ad libitum. The mice were housed for 1 week prior to behavioral testing, at which time they weighed 25-35 g. Pentylenetetrazol (PTZ, Sigma) was dissolved in sterile 0.9% saline at a concentration of 12 mg/mL concentration for subcutaneous administration. Test compounds were formulated and administered via oral gavage at 60 minutes prior to PTZ injection. AU solutions were made fresh and were given in a volume of 10 ml/kg body weight.
Mice were acclimated to the test room for at least 30 min before compound administration. Mice were randomized into at least four test groups (vehicle and at least three doses of the test compound) with 10 mice per group. […] Following the drug pretreatment time, the mice were injected s.c. with PTZ (120 mg/kg). Immediately following the PTZ injection, mice were individually placed into observation chambers (25×15×15 cm) and a three-channel timer was started. Each mouse was continuously observed for 30 min and the following behaviors were recorded by observers blinded to the treatments: 1) latency to clonic convulsions that persist for 3 sec and followed by an absence of righting reflex 2) latency to tonic convulsions, characterized by the rigid extension of all four limbs that exceeded a 90 degree angle with the body 3) latency to death 4) number of clonic and tonic convulsions. Data are presented as mean±S.E.M and one-way analysis of variance with Dunnetfs or Bonferroni's post-hoc test was used to detect significant differences in latency and number between the vehicle and dose group, p values<0.05 were regarded as statistically significant.

Setting [2] is: iv, 1 mg/kg i.v., read-out: AUClast (hr*ng/mL) i.v.
Where [3] appears, read: po, 5 mg/kg p.o., read-out: AUClast (hr*ng/mL) p.o.

Read-outs that look alike come from different tables or passages of the source.

T1 sequence (P14867 28-456): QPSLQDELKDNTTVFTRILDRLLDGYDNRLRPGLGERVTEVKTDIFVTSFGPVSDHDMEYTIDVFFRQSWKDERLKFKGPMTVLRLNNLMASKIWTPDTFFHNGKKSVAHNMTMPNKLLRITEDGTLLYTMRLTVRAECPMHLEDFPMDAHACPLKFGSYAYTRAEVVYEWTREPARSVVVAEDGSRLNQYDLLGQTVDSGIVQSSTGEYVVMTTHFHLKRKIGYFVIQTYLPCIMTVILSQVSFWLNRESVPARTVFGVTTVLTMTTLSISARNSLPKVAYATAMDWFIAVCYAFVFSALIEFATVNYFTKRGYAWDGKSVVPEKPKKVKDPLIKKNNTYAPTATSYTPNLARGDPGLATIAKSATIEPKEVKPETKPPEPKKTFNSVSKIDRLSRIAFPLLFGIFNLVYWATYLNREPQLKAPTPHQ
T1 sequence (P47870 25-512 limits assumed): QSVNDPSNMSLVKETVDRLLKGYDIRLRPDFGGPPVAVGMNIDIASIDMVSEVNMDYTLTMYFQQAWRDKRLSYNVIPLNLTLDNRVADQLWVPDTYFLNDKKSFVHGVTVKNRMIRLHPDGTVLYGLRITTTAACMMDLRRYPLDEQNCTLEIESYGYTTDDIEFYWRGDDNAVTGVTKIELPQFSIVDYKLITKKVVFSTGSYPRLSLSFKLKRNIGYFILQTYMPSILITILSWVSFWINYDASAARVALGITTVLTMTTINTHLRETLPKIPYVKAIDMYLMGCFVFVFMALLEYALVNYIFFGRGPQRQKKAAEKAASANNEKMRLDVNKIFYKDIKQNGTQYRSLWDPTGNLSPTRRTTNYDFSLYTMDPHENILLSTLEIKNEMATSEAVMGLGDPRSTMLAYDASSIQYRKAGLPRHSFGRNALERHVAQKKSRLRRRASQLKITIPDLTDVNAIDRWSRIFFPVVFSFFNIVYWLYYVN
T1 sequence (P18507 40-475 partner): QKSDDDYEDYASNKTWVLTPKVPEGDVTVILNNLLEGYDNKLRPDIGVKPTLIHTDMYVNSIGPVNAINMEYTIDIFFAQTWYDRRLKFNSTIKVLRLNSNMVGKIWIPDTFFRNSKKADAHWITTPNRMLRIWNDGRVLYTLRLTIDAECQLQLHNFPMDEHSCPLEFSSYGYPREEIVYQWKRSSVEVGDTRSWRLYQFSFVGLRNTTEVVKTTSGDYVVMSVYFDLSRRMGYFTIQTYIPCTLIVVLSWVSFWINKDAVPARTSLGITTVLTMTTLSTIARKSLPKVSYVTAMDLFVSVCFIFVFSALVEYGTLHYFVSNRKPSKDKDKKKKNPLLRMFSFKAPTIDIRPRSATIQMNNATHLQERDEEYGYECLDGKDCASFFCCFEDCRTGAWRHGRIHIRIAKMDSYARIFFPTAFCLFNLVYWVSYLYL

For orientation: Cmax means the highest concentration seen after dosing. In general, Tmax refers to the time from dosing to the highest level. What is called EC50 is the concentration needed to bring the measured effect to its halfway point. For orientation: Emax means the size of the effect at its maximum, as opposed to the concentration needed. In the case of `C[C@@]1(O)CC[C@H]2[C@H](CC[C@@H]3[C@@H]2CC[C@]2(C)[C@@H](C(=O)Cn4nnn(-c5ccc(F)cc5)c4=O)CC[C@@H]32)C1` [Example 11, 1-(4-fluorophenyl)-4-(2-((3R,5R,8R,9R,10S,13S,14S,17S)-3-hydroxy-3,13-dimethylhexadecahydro-1H-cyclopenta[a]phenanthren-17-yl)-2-oxoethyl)-1,4-dihydro-5H-tetrazol-5-one], in series [1] (iv, 1 mg/kg i.v.), the clearance is 13.5 mL/min/kg, the half-life is 3.9 h and the Vd was 2.42 L/kg. The AUC(0-t) in series [1] (setting [2]) was found to be 1230 ng·h/mL. In addition, in series [1] (po, 5 mg/kg p.o.), the highest level (Cmax) was 274 ng/mL and the Tmax was determined as 1 h. Besides, the bioavailability in series [1] (po) stood at 52.3%. Further, the AUC(0-t) in series [1] (setting [3]) turned out to be 3200 ng·h/mL. Besides, the half-maximal effective concentration (EC50) at α1β2γ2 GABAA receptor stood at 44 nM. For the same compound, at α1β2γ2 GABAA receptor (HEK-293T, potentiation of 2 μM GABA current), the Emax stood at 795%. For the same compound, in the series on PTZ-treated mice, the “Clonic Seizure Latency (sec) (Mean)” value came out at 717.4 ± 238.5 s, the “Clonic Seizure Number (Mean)” value is given as 0.8 ± 0.2, the “Mortality (%)” value is listed as 0.0% and the “Onset of death (sec) (Mean)” value was 1800 + 0.0 sec. In addition, in the series on PTZ-treated mice, the “Tonic Seizure Latency (sec) (Mean)” value is on record as 1800 + 0.0 sec and the “Tonic Seizure Number (Mean)” value was 0.0 + 0.0.
In the case of `C[C@@]1(O)CC[C@H]2[C@H](CC[C@@H]3[C@@H]2CC[C@]2(C)[C@@H](C(=O)Cn4nnn(-c5cn[nH]c5)c4=O)CC[C@@H]32)C1` [Example 28, 1-(2-((3R,5R,8R,9R,10S,13S,14S,17S)-3-hydroxy-3,13-dimethylhexadecahydro-1H-cyclopenta[a]phenanthren-17-yl)-2-oxoethyl)-4-(1H-pyrazol-4-yl)-1,4-dihydro-5H-tetrazol-5-one], in series [1] (iv, 1 mg/kg i.v.), the clearance was 7.17 mL/min/kg, the half-life is 6.12 h and the Vd came out at 2.9 L/kg. For the same compound, the AUC(0-t) in series [1] (setting [2]) was 2180 ng·h/mL. In series [1] (po, 5 mg/kg p.o.), the maximum concentration (Cmax) is 563 ng/mL and the Tmax was found to be 6 h. Moreover, in series [1] (po), the bioavailability amounted to 77.3%. Further, the AUC(0-t) in series [1] (setting [3]) is 8420 ng·h/mL. For the same compound, the EC50 on α1β2γ2 GABAA receptor is 140 nM. For the same compound, in the series on PTZ-treated mice, the “Clonic Seizure Latency (sec) (Mean)” value was 573.1 ± 124.9 s, the “Clonic Seizure Number (Mean)” value turned out to be 1.7 ± 0.3, the “Mortality (%)” value worked out at 40% and the “Onset of death (sec) (Mean)” value amounted to 1594.7 ± 107.0 s. In addition, in the series with PTZ-treated mice, the “Tonic Seizure Latency (sec) (Mean)” value came to 1586.3 ± 109.8 s and the “Tonic Seizure Number (Mean)” value was 0.4 ± 0.2.
Turning to `C[C@@]1(O)CC[C@H]2[C@H](CC[C@@H]3[C@@H]2CC[C@]2(C)[C@@H](C(=O)Cn4nnn(-c5ccccc5)c4=O)CC[C@@H]32)C1` [Example 10, 1-(2-((3R,5R,8R,9R,10S,13S,14S,17S)-3-hydroxy-3,13-dimethylhexadecahydro-1H-cyclopenta[a]phenanthren-17-yl)-2-oxoethyl)-4-phenyl-1,4-dihydro-5H-tetrazol-5-one], in series [1] (iv, 1 mg/kg i.v.), the clearance was 9 mL/min/kg, the half-life is 4.22 h and the Vd was determined as 2.16 L/kg. Also, the AUC(0-t) in series [1] (setting [2]) came to 1840 ng·h/mL. In addition, in series [1] (po, 5 mg/kg p.o.), the Cmax worked out at 491 ng/mL and the Tmax is 3 h. In addition, the bioavailability in series [1] (po) stood at 60.5%. Also, the AUC(0-t) in series [1] (setting [3]) was 5510 ng·h/mL. The EC50 at α1β2γ2 GABAA receptor was 27 nM. Moreover, in the series with PTZ-treated mice, the “Clonic Seizure Latency (sec) (Mean)” value is on record as 1485 + 210.2 sec, the “Clonic Seizure Number (Mean)” value worked out at 0.3 ± 0.2, the “Mortality (%)” value is 0.0% and the “Onset of death (sec) (Mean)” value is 1800 + 0.0 sec. In addition, in the series with PTZ-treated mice, the “Tonic Seizure Latency (sec) (Mean)” value is given as 1800 + 0.0 sec and the “Tonic Seizure Number (Mean)” value is 0.0 + 0.0.
For `C[C@@]1(O)CC[C@H]2[C@H](CC[C@@H]3[C@@H]2CC[C@]2(C)[C@@H](C(=O)Cn4nnn(-c5ccc(C#N)cc5)c4=O)CC[C@@H]32)C1` [Example 13, 4-(4-(2-((3R,5R,8R,9R,10S,13S,14S,17S)-3-hydroxy-3,13-dimethylhexadecahydro-1H-cyclopenta[a]phenanthren-17-yl)-2-oxoethyl)-5-oxo-4,5-dihydro-1H-tetrazol-1-yl)benzonitrile], in series [1] (iv, 1 mg/kg i.v.), the clearance is 5.67 mL/min/kg, the half-life is 8.03 h and the Vd was determined as 2.94 L/kg. In addition, the AUC(0-t) in series [1] (setting [2]) came out at 2640 ng·h/mL. Further, in series [1] (po, 5 mg/kg p.o.), the Cmax was determined as 479 ng/mL and the Tmax was 1 h. For the same compound, in series [1] (po), the bioavailability came out at 41.5%. Moreover, in series [1] (setting [3]), the AUC(0-t) came out at 5760 ng·h/mL. Besides, at α1β2γ2 GABAA receptor, the 50% effective concentration (EC50) worked out at 13 nM. In addition, in the series with PTZ-treated mice, the “Clonic Seizure Latency (sec) (Mean)” value is given as 1012 + 263.6 sec, the “Clonic Seizure Number (Mean)” value was found to be 0.7 ± 0.3, the “Mortality (%)” value worked out at 0.0% and the “Onset of death (sec) (Mean)” value was 1800 + 0.0 sec. In addition, in the series with PTZ-treated mice, the “Tonic Seizure Latency (sec) (Mean)” value was 1800 + 0.0 sec and the “Tonic Seizure Number (Mean)” value is recorded as 0.0 + 0.0.
In the case of `C[C@@]1(O)CC[C@H]2[C@H](CC[C@@H]3[C@@H]2CC[C@]2(C)[C@@H](C(=O)Cn4nnn(-c5ccncc5)c4=O)CC[C@@H]32)C1` [Example 17, 1-(2-((3R,5R,8R,9R,10S,13S,14S,17S)-3-hydroxy-3,13-dimethylhexadecahydro-1H-cyclopenta[a]phenanthren-17-yl)-2-oxoethyl)-4-(pyridin-4-yl)-1,4-dihydro-5H-tetrazol-5-one], in series [1] (iv, 1 mg/kg i.v.), the clearance was 43.5 mL/min/kg, the half-life was 0.84 h and the Vd is 2.12 L/kg. The AUC(0-t) in series [1] (setting [2]) amounted to 381 ng·h/mL. Further, in series [1] (po, 5 mg/kg p.o.), the highest level (Cmax) was 227 ng/mL and the Tmax came out at 3 h. The bioavailability in series [1] (po) was determined as 101%. Also, the AUC(0-t) in series [1] (setting [3]) came to 1930 ng·h/mL. Further, at α1β2γ2 GABAA receptor, the EC50 came to 38 nM. Moreover, in the series with PTZ-treated mice, the “Clonic Seizure Latency (sec) (Mean)” value is reported as 1441 + 184.6 sec, the “Clonic Seizure Number (Mean)” value was found to be 0.3 ± 0.2, the “Mortality (%)” value is on record as 0.0% and the “Onset of death (sec) (Mean)” value is recorded as 1800 + 0.0 sec. Also, in the series on PTZ-treated mice, the “Tonic Seizure Latency (sec) (Mean)” value is on record as 1800 + 0.0 sec and the “Tonic Seizure Number (Mean)” value was 0.0 + 0.0.
